One assay deals with T1, HDAC1 enzyme (Homo sapiens, UniProt Q13547).
T1 construct: prepared by transducing full length HDAC1 and HDAC6 genes into Sf-9 insect cells; GST; purchased SignalChem; host or cells: Sf-9 insect cells
In words: HDAC1 enzyme inhibitory assay (HDAC-Glo I/II Assay kit). Format: biochemical. The conditions noted are these: 1 μM test compound; for inhibition at 1 µM: read-out: HDAC1 inhibitory rate (%) (1 μM). In outline: (§1)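 Luminescence read-out: 20 min after adding HDAC-Glo substrate-developer at room temperature. Before that, compound and Sf-9-expressed, GST-purified full-length HDAC1 or HDAC6 sat together 60 min in pH 7.5 Tris buffer. Inhibition is relative to no-enzyme wells taken as 100%.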

In a further assay the target is T2, HDAC6 enzyme (Homo sapiens, UniProt Q9UBN7).
T2 construct: prepared by transducing full length HDAC1 and HDAC6 genes into Sf-9 insect cells; GST; purchased SignalChem; host or cells: Sf-9 insect cells
T2 sequence (Q9UBN7 1-1215): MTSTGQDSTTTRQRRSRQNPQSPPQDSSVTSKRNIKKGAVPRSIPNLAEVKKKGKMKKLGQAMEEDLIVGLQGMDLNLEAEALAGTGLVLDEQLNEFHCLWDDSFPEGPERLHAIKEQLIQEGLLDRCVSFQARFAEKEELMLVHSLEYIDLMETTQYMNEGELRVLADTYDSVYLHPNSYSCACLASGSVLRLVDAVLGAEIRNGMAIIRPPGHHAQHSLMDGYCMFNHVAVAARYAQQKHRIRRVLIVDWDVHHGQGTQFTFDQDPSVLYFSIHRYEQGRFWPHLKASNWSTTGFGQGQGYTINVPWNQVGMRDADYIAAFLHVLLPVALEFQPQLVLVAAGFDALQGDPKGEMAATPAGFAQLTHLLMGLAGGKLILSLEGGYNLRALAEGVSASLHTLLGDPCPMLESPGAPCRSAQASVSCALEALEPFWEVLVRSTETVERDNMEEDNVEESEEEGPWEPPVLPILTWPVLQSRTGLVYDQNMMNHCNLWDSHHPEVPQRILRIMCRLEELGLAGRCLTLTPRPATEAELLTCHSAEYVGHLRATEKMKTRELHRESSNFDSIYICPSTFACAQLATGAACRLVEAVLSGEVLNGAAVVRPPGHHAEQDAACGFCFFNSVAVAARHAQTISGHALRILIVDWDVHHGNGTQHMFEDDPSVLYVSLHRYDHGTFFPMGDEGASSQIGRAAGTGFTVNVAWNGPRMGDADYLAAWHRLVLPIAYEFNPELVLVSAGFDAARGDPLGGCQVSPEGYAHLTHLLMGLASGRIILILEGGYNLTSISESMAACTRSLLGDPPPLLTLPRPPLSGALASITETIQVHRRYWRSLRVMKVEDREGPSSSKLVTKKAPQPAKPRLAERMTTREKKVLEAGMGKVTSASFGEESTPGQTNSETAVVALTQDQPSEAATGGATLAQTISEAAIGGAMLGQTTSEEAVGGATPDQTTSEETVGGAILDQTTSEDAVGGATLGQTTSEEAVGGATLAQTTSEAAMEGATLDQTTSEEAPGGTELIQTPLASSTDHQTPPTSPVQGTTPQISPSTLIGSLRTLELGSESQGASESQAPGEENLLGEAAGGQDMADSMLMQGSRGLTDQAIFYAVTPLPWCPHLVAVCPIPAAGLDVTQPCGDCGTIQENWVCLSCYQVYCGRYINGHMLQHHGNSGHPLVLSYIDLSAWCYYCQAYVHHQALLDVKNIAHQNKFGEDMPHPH
In words: HDAC6 enzyme inhibitory assay (HDAC-Glo I/II Assay kit). To be noted: 1 μM test compound; for inhibition at 1 µM: read-out: HDAC6 inhibitory rate (%) (1 μM). Format: biochemical. Put shortly: as §1

T1 sequence (Q13547 whole entry): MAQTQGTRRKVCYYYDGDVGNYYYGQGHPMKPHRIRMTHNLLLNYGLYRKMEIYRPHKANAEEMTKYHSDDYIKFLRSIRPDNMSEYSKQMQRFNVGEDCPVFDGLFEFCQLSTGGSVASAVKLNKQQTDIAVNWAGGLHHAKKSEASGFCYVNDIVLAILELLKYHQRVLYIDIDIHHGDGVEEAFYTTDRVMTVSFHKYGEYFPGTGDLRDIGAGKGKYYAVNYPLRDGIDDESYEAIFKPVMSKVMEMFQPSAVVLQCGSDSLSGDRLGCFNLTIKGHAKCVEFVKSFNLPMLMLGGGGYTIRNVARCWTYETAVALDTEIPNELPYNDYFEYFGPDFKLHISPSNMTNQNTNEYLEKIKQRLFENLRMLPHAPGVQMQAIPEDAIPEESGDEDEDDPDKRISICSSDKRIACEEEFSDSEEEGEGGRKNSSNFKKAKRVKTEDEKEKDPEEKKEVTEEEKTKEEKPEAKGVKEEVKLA

For `N#Cc1ccccc1C(=O)N1CCOC[C@@H]1CNC(=O)c1ccc(-c2noc(C(F)(F)F)n2)cc1` [Example 43, N-(((3S)-4-(2-cyanobenzoyl)morpholin-3-yl)methyl)-4-(5-(trifluoromethyl)-1,2,4-oxadiazol-3-yl)benzamide], the inhibition at 1 µM at HDAC1 enzyme was 14%. The “HDAC6 inhibitory rate (%) (1 μM)” value at HDAC6 enzyme is recorded as 101%.

Regarding `N#Cc1cccc(C(=O)N2CCOC[C@@H]2CNC(=O)c2ccc(-c3noc(C(F)(F)F)n3)cc2)c1` [Example 44, N-(((3S)-4-(3-cyanobenzoyl)morpholin-3-yl)methyl)-4-(5-(trifluoromethyl)-1,2,4-oxadiazol-3-yl)benzamide], the inhibition at 1 µM on HDAC1 enzyme came out at 16%. In addition, on HDAC6 enzyme, the “HDAC6 inhibitory rate (%) (1 μM)” value was found to be 99%.

For `N#Cc1ccc(C(=O)N2CCOC[C@@H]2CNC(=O)c2ccc(-c3noc(C(F)(F)F)n3)cc2)cc1` [Example 45, N-(((3S)-4-(4-cyanobenzoyl)morpholin-3-yl)methyl)-4-(5-(trifluoromethyl)-1,2,4-oxadiazol-3-yl)benzamide], the inhibition at 1 µM at HDAC1 enzyme was 25%. The “HDAC6 inhibitory rate (%) (1 μM)” value on HDAC6 enzyme turned out to be 99%.

For the compound `O=C(NC[C@H]1COCCN1C(=O)c1ccccc1N1CCOCC1)c1ccc(-c2noc(C(F)(F)F)n2)cc1` [Example 46, N-(((3S)-4-(2-(morpholin-4-yl)benzoyl)morpholin-3-yl)methyl)-4-(5-(trifluoromethyl)-1,2,4-oxadiazol-3-yl)benzamide], on HDAC1 enzyme (1 µM), the “HDAC1 inhibitory rate (%) (1 μM)” value is on record as 12%. The “HDAC6 inhibitory rate (%) (1 μM)” value at HDAC6 enzyme is listed as 95%.

As for `O=C(NC[C@H]1COCCN1C(=O)c1cc(F)c(F)c(F)c1)c1ccc(-c2noc(C(F)(F)F)n2)cc1` [Example 47, N-(((3S)-4-(3,4,5-trifluorobenzoyl)morpholin-3-yl)methyl)-4-(5-(trifluoromethyl)-1,2,4-oxadiazol-3-yl)benzamide], the “HDAC1 inhibitory rate (%) (1 μM)” value at HDAC1 enzyme is reported as 11%. At HDAC6 enzyme, the “HDAC6 inhibitory rate (%) (1 μM)” value is given as 102%.

In the case of `O=C(NC[C@H]1COCCN1C(=O)c1ccncc1)c1ccc(-c2noc(C(F)(F)F)n2)cc1` [Example 48, N-(((3S)-4-isonicotinoylmorpholin-3-yl)methyl)-4-(5-(trifluoromethyl)-1,2,4-oxadiazol-3-yl)benzamide], the inhibition at 1 µM on HDAC1 enzyme amounted to 16%. In addition, on HDAC6 enzyme, the “HDAC6 inhibitory rate (%) (1 μM)” value stood at 98%.

Take `Cc1cc(C(=O)N2CCOC[C@@H]2CNC(=O)c2ccc(-c3noc(C(F)(F)F)n3)cc2)ccn1` [Example 49, N-(((3S)-4-(2-methylisonicotinoyl)morpholin-3-yl)methyl)-4-(5-(trifluoromethyl)-1,2,4-oxadiazol-3-yl)benzamide]: the inhibition at 1 µM at HDAC1 enzyme turned out to be 13%. On HDAC6 enzyme, the “HDAC6 inhibitory rate (%) (1 μM)” value turned out to be 98%.

For the compound `O=C(NC[C@H]1COCCN1C(=O)c1ccc(OCC(F)(F)F)nc1)c1ccc(-c2noc(C(F)(F)F)n2)cc1` [Example 51, N-(((3S)-4-((6-(2,2,2-trifluoroethoxy)pyridin-3-yl)carbonyl)morpholin-3-yl)methyl)-4-(5-(trifluoromethyl)-1,2,4-oxadiazol-3-yl)benzamide], the results for the inhibition at 1 µM on HDAC1 enzyme and on HDAC6 enzyme were 15% and 99%, respectively.

As to `O=C(NC[C@H]1COCCN1C(=O)C1CCc2ccccc2O1)c1ccc(-c2noc(C(F)(F)F)n2)cc1` (stereo partly drawn) [Example 52, N-(((3S)-4-(3,4-dihydro-2H-chromen-2-ylcarbonyl)morpholin-3-yl)methyl)-4-(5-(trifluoromethyl)-1,2,4-oxadiazol-3-yl)benzamide], the inhibition at 1 µM on HDAC1 enzyme was 18%; on HDAC6 enzyme it was 97%.

For the compound `N#CC1(C(=O)N2CCOC[C@@H]2CNC(=O)c2ccc(-c3noc(C(F)(F)F)n3)cc2)CC1` [Example 55, N-(((3S)-4-((1-cyanocyclopropyl)carbonyl)morpholin-3-yl)methyl)-4-(5-(trifluoromethyl)-1,2,4-oxadiazol-3-yl)benzamide], the inhibition at 1 µM is 17% at HDAC1 enzyme and 96% at HDAC6 enzyme.

Take `O=C(NC[C@H]1COCCN1C(=O)C1(c2ccccc2)CC1)c1ccc(-c2noc(C(F)(F)F)n2)cc1` [Example 56, N-(((3S)-4-((1-phenylcyclopropyl)carbonyl)morpholin-3-yl)methyl)-4-(5-(trifluoromethyl)-1,2,4-oxadiazol-3-yl)benzamide]: the inhibition at 1 µM came to 16% at HDAC1 enzyme and 97% on HDAC6 enzyme.

`Cc1oncc1C(=O)N1CCOC[C@@H]1CNC(=O)c1ccc(-c2noc(C(F)(F)F)n2)cc1` [Example 59, N-(((3S)-4-((5-methyl-1,2-oxazol-4-yl)carbonyl)morpholin-3-yl)methyl)-4-(5-(trifluoromethyl)-1,2,4-oxadiazol-3-yl)benzamide]: the inhibition at 1 µM on HDAC1 enzyme is 22%; at HDAC6 enzyme, 101%.

As to `Cc1nonc1C(=O)N1CCOC[C@@H]1CNC(=O)c1ccc(-c2noc(C(F)(F)F)n2)cc1` [Example 60, N-(((3S)-4-((4-methyl-1,2,5-oxadiazol-3-yl)carbonyl)morpholin-3-yl)methyl)-4-(5-(trifluoromethyl)-1,2,4-oxadiazol-3-yl)benzamide], the inhibition at 1 µM is 27% at HDAC1 enzyme and 98% on HDAC6 enzyme.

For the compound `O=C(NC[C@H]1COCCN1C(=O)c1ccno1)c1ccc(-c2noc(C(F)(F)F)n2)cc1` [Example 61, N-(((3S)-4-(1,2-oxazol-5-ylcarbonyl)morpholin-3-yl)methyl)-4-(5-(trrfluoromethyl)-1,2,4-oxadiazol-3-yl)benzamide], the inhibition at 1 µM amounted to 10% on HDAC1 enzyme and 97% on HDAC6 enzyme.

Consider `Cc1cc(C(=O)N2CCOC[C@@H]2CNC(=O)c2ccc(-c3noc(C(F)(F)F)n3)cc2)n(C)n1` [Example 63, N-(((3S)-4-((1,3-dimethyl-1H-pyrazol-5-yl)carbonyl)morpholin-3-yl)methyl)-4-(5-(trifluoromethyl)-1,2,4-oxadiazol-3-yl)benzamide], for which the values for the inhibition at 1 µM at HDAC1 enzyme and at HDAC6 enzyme were 14% and 97%, respectively.

On to `Cn1nc(C(F)(F)F)cc1C(=O)N1CCOC[C@@H]1CNC(=O)c1ccc(-c2noc(C(F)(F)F)n2)cc1` [Example 64, N-(((3S)-4-((1-methyl-3-(trifluoromethyl)-1H-pyrazol-5-yl)carbonyl)morpholin-3-yl)methyl)-4-(5-(trifluoromethyl)-1,2,4-oxadiazol-3-yl)benzamide], for which the inhibition at 1 µM amounted to 17% on HDAC1 enzyme and 93% on HDAC6 enzyme.

On to `Cc1nn(C)c(C)c1C(=O)N1CCOC[C@@H]1CNC(=O)c1ccc(-c2noc(C(F)(F)F)n2)cc1` [Example 67, 4-(5-(trifluoromethyl)-1,2,4-oxadiazol-3-yl)-N-(((3S)-4-((1,3,5-trimethyl-1H-pyrazol-4-yl)carbonyl)morpholin-3-yl)methyl)benzamide], for which the figures for the inhibition at 1 µM at HDAC1 enzyme and at HDAC6 enzyme were 5% and 95%, respectively.

Take `Cc1nnsc1C(=O)N1CCOC[C@@H]1CNC(=O)c1ccc(-c2noc(C(F)(F)F)n2)cc1` [Example 68, N-(((3S)-4-((4-methyl-1,2,3-thiadiazol-5-yl)carbonyl)morpholin-3-yl)methyl)-4-(5-(trifluoromethyl)-1,2,4-oxadiazol-3-yl)benzamide]: the inhibition at 1 µM at HDAC1 enzyme was found to be 32%; on HDAC6 enzyme, 101%.

On to `Cc1ncsc1C(=O)N1CCOC[C@@H]1CNC(=O)c1ccc(-c2noc(C(F)(F)F)n2)cc1` [Example 69, N-(((3S)-4-((4-methyl-1,3-thiazol-5-yl)carbonyl)morpholin-3-yl)methyl)-4-(5-(trifluoromethyl)-1,2,4-oxadiazol-3-yl)benzamide], for which the inhibition at 1 µM was 16% on HDAC1 enzyme and 100% on HDAC6 enzyme.

For `O=C(NC[C@H]1COCCN1C(=O)c1csnn1)c1ccc(-c2noc(C(F)(F)F)n2)cc1` [Example 70, N-(((3S)-4-(1,2,3-thiadiazol-4-ylcarbonyl)morpholin-3-yl)methyl)-4-(5-(trifluoromethyl)-1,2,4-oxadiazol-3-yl)benzamide], the inhibition at 1 µM was 5% on HDAC1 enzyme and 95% on HDAC6 enzyme.

The values are drawn from patent publication US10081624B2, “Heterocyclic compound” (Takeda Pharmaceutical Company Limited, priority 2014, dated 2018).
